According to article PMC3914206:

Columns and labels:
Assay type in all cases: binding
panel of 442 kinases [1] = molecular target: T1, panel of 442 kinases (Homo sapiens, UniProt P04049); conditions: Compound Concentration 10 µM
T1 construct: purchased KINOMEscan
From the text: (§1) We assessed the selectivity of members of this scaffold using the KINOMEscan methodology across a near comprehensive panel of 442 kinases [[18,27]].

panel of 442 kinases [2] = molecular target: T2, panel of 442 kinases (Homo sapiens, UniProt Q8WU08); conditions: kinase YANK1; compound concentration 10 µM
T2 construct: purchased KINOMEscan
From the text: as §1

panel of 442 kinases [3] = molecular target: T3, panel of 442 kinases (Homo sapiens, UniProt Q9NYL2); conditions: kinase ZAK; compound concentration 10 µM
T3 construct: purchased KINOMEscan
From the text: as §1

T1 sequence (P04049 whole entry): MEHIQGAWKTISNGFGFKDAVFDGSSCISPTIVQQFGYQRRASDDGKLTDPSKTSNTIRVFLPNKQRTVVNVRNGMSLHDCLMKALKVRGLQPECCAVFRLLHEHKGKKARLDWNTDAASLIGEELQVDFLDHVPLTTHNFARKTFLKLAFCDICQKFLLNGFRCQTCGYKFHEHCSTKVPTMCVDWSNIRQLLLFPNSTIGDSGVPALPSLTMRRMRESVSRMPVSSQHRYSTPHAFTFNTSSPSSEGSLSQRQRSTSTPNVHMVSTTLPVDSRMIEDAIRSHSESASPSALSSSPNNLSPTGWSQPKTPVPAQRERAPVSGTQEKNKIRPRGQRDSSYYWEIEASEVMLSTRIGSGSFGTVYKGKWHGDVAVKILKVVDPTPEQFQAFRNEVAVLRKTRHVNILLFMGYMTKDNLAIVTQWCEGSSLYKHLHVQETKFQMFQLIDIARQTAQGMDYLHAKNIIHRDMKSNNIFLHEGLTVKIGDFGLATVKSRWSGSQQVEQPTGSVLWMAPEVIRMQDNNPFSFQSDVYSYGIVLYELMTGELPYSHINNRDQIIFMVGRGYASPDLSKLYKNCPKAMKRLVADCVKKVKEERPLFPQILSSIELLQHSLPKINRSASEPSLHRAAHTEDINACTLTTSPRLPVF
T3 sequence (Q9NYL2 whole entry): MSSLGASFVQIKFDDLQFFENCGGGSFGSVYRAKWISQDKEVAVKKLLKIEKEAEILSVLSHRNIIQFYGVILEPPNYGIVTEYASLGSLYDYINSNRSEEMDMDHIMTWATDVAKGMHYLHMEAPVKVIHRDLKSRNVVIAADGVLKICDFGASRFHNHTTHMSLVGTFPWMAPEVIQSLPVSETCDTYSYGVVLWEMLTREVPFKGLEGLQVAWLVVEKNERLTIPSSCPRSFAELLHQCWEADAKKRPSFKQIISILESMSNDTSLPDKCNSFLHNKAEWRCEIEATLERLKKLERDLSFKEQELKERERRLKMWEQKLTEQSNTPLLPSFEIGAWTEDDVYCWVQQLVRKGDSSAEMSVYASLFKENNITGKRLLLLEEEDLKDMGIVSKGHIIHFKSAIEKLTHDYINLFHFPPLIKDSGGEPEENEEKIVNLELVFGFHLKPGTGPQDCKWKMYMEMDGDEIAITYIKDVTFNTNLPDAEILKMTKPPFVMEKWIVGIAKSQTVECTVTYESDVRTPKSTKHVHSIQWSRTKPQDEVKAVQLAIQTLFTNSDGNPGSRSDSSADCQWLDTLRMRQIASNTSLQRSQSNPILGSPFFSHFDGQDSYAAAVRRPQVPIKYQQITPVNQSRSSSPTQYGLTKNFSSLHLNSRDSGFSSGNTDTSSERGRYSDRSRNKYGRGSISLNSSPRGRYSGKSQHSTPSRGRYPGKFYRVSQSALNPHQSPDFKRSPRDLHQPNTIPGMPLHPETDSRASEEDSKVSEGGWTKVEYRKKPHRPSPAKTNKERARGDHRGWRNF
T2 sequence (Q8WU08 whole entry): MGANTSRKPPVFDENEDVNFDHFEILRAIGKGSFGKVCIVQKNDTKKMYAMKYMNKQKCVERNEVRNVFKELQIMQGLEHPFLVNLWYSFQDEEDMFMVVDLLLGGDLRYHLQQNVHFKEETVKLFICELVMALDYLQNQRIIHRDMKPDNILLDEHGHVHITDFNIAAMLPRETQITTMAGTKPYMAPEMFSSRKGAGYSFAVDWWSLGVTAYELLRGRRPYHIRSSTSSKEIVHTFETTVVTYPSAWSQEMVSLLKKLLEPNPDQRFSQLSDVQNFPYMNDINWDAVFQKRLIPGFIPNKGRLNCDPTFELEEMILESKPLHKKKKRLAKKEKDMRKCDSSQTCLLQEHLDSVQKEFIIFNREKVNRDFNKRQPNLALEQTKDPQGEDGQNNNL

Row | Structure (SMILES) | KINOMEscan: RAF1 (panel of 442 kinases [1]) | % Ctrl, YANK1 (panel of 442 kinases [2]) [% Ctrl] | % Ctrl, ZAK (panel of 442 kinases [3]) [% Ctrl]
1 | COc1cc(C(=O)N2CCC(N3CCN(C)CC3)CC2)ccc1Nc1ncc2c(n1)N(C)c1ccccc1C(=O)N2C [15 (LRRK2-IN-1)] | 100 | 100 | 99
2 | CCOc1cc(C(=O)N2CCC(N3CCN(C)CC3)CC2)ccc1Nc1ncc2c(n1)N(C1CCCC1)c1ccccc1C(=O)N2C [Compound 26] | 100 | 100 | 100
3 | COc1cc(C(=O)N2CCC(N3CCN(C)CC3)CC2)ccc1Nc1ncc2c(n1)N1CCc3cccc(c31)C(=O)N2C [Compound 24] | – | 100 | 88
4 | COc1cc(C(=O)N2CCC(N3CCN(C)CC3)CC2)ccc1Nc1ncc2c(n1)N(C1CCCC1)c1ccccc1C(=O)N2C [Compound 25, 11-cyclopentyl-2-((2-methoxy-4-(4-(4-methylpiperazin-1-yl)piperidine-1-carbonyl)phenyl)amino)-5-methyl-5H-benzo[e]pyrimido[5,4-b][1,4]diazepin-6(11H)-one] | 100 | 100 | 100
